Reference: BindingDB's records for patent US20240148821 (Chugai Seiyaku Kabushiki Kaisha, 2024)
Numbered stars: 1 amine (or outer) side, 2 acyl side, 3 side chain; on linkers, the order of the positions; unused ones are H or OH. Bridge positions count the residues as written; N and C are the ends. Square brackets hold non-standard residues; d marks the D form. Peptide text beside a SMILES is read from it. * marks the point of attachment. hPhe(3-Cl-4-CF3) = N[C@@H](CCc1ccc(C(F)(F)F)c(Cl)c1)C(=O)O; hPhe(3-F,4-CF3) = N[C@@H](CCc1ccc(C(F)(F)F)c(F)c1)C(=O)O; X123 = O=C([C@@H]1C[C@H](n2ccnn2)CN1[*:1])[*:2]; X31 = O=C([C@@H]1C[C@@H](n2ccnn2)CN1[*:1])[*:2]; NMeAla(cPent) = CN[C@@H](CC1CCCC1)C(=O)O; NMeCha = CN[C@@H](CC1CCCCC1)C(=O)O; cisHyp = O=C(O)[C@@H]1C[C@H](O)CN1; Hyp = O=C(O)[C@@H]1C[C@@H](O)CN1; NMeD = CN[C@@H](CC(=O)O)C(=O)O; Benzyl(4-Cl) = Clc1ccc(C*)cc1; NMeL = CN[C@@H](CC(C)C)C(=O)O; NMeV = CN[C@H](C(=O)O)C(C)C; Piperidide = C1CCN(*)CC1; X57 = FC(F)Oc1ccc(C*)cc1; Ac5c = NC1(C(=O)O)CCCC1; X106 = Clc1cccc(C*)c1; Sar = CNCC(=O)O

Biological target: GTPase KRas (G12D) and Son of Sevenless Homolog 1 (SOS) (Homo sapiens, UniProt P01116, G12D)
Experiment: AlphaScreen Assay
Procedure: Protein-protein interaction inhibition (PPI) between Kras and SOS1 was measured by energy transfer from nickel-conjugated donor beads to streptavidin-conjugated acceptor beads using biotin-tagged human Kras expressed in E. coli and loaded with GDP after purification and His-tagged human SOS1 enzyme. This measurement utilizes the phenomenon in which donor beads are irradiated with light at 680 nm, such that energy is transferred to acceptor beads through singlet oxygen and light at 520-620 nm is detected from the acceptor beads.

Sequence of GTPase KRas (G12D) and Son of Sevenless Homolog 1 (SOS) (P01116 whole entry G12D): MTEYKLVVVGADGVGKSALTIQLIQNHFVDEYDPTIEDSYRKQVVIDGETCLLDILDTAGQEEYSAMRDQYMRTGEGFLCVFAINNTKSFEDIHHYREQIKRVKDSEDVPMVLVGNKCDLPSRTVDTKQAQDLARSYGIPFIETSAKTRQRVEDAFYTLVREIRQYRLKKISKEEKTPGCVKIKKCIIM
Sequence of GTPase KRas (G12D) and Son of Sevenless Homolog 1 (SOS) (Q07889 whole entry, further chain): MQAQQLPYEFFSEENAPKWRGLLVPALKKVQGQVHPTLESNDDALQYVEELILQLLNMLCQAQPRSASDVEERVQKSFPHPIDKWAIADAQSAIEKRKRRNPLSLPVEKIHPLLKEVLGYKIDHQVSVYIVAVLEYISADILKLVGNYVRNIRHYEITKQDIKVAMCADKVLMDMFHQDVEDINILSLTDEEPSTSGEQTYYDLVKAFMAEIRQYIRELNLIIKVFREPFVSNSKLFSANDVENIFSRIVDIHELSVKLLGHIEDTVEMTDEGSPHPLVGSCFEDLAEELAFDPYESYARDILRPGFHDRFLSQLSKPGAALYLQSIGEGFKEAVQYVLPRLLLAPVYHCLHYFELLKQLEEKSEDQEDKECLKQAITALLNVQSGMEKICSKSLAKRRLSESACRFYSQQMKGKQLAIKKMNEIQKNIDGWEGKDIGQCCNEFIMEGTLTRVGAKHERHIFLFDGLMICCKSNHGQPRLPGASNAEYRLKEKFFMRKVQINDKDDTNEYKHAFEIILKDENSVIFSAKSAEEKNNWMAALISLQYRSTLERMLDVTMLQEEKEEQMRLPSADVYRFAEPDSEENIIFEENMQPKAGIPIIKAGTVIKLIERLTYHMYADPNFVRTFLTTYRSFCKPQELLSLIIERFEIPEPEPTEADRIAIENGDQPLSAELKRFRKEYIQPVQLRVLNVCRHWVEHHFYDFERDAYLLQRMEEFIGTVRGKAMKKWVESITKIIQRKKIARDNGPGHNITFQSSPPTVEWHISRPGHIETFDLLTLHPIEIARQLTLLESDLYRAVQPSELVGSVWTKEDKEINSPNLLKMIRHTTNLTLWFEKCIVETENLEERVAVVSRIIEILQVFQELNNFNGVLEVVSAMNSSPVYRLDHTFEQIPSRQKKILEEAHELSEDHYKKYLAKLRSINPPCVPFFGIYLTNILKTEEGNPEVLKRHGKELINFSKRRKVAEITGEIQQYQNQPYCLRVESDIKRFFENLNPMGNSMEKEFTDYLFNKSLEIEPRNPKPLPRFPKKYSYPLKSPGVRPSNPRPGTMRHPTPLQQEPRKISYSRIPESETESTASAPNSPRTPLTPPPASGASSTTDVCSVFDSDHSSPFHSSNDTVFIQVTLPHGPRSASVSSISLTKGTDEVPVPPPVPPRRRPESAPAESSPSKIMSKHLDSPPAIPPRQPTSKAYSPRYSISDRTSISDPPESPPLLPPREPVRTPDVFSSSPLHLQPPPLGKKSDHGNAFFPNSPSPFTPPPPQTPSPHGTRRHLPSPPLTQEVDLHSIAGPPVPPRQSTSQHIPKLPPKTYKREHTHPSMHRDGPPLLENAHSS

Going from `CC[C@H](C)[C@@H]1NC(=O)[C@H](CC(C)C)N(C)C(=O)C[C@@H](C(=O)N2CCCCC2)N(C)C(=O)[C@H](C(C)C)N(C)C(=O)C2(CCCC2)NC(=O)[C@@H]2C[C@@H](n3ccnn3)CN2C(=O)[C@H](CCc2ccc(C(F)(F)F)c(Cl)c2)NC(=O)CN(C)C(=O)[C@H](CC2CCCC2)N(C)C(=O)CN(C)C(=O)CN(C)C1=O` [US20240148821, Compound 2113] ([NMeL]I[Sar][Sar][NMeAla(cPent)][Sar][hPhe(3-Cl-4-CF3)][X31][Ac5c][NMeV][NMeD]-Piperidide; lactam N-11) to `CC[C@H](C)[C@@H]1NC(=O)[C@H](CC(C)C)N(C)C(=O)C[C@@H](C(=O)N2CCCCC2)N(C)C(=O)[C@H](C(C)C)N(C)C(=O)C2(CCCC2)NC(=O)[C@@H]2C[C@H](n3ccnn3)CN2C(=O)[C@H](CCc2ccc(C(F)(F)F)c(Cl)c2)NC(=O)CN(C)C(=O)[C@H](CC2CCCC2)N(C)C(=O)CN(C)C(=O)CN(C)C1=O` [US20240148821, Compound 2115] ([NMeL]I[Sar][Sar][NMeAla(cPent)][Sar][hPhe(3-Cl-4-CF3)][X123][Ac5c][NMeV][NMeD]-Piperidide; lactam N-11), the IC50 rises from 0.47 nM to 1.1 nM (2.3-fold).

`CCO[C@@H]1C[C@H]2C(=O)NC3(CCCC3)C(=O)N(C)[C@@H](CC(C)C)C(=O)N(C)[C@H](C(=O)N3CCCCC3)CC(=O)N(C)[C@@H](CC(C)C)C(=O)N[C@@H]([C@@H](C)CC)C(=O)N(C)CC(=O)N(C)CC(=O)N(C)[C@@H](CC3CCCCC3)C(=O)N(C)CC(=O)N[C@@H](CCc3ccc(C(F)(F)F)c(F)c3)C(=O)N2C1` [US20240148821, Compound 2118] ([NMeL]I[Sar][Sar][NMeCha][Sar][hPhe(3-F,4-CF3)][Hyp](Et)[Ac5c][NMeL][NMeD]-Piperidide; lactam N-11) and `CCO[C@H]1C[C@H]2C(=O)NC3(CCCC3)C(=O)N(C)[C@@H](CC(C)C)C(=O)N(C)[C@H](C(=O)N3CCCCC3)CC(=O)N(C)[C@@H](CC(C)C)C(=O)N[C@@H]([C@@H](C)CC)C(=O)N(C)CC(=O)N(C)CC(=O)N(C)[C@@H](CC3CCCCC3)C(=O)N(C)CC(=O)N[C@@H](CCc3ccc(C(F)(F)F)c(F)c3)C(=O)N2C1` [US20240148821, Compound 2127] ([NMeL]I[Sar][Sar][NMeCha][Sar][hPhe(3-F,4-CF3)][cisHyp](Et)[Ac5c][NMeL][NMeD]-Piperidide; lactam N-11) are within 1.5-fold of each other in IC50: 3.2 nM for the first, 4.5 nM for the second.

`CC[C@H](C)[C@@H]1NC(=O)[C@H](CC(C)C)N(C)C(=O)C[C@@H](C(=O)N2CCCCC2)N(C)C(=O)[C@H](CC(C)C)N(C)C(=O)C2(CCCC2)NC(=O)[C@@H]2C[C@H](OCc3cccc(Cl)c3)CN2C(=O)[C@H](CCc2ccc(C(F)(F)F)c(F)c2)NC(=O)CN(C)C(=O)[C@H](CC2CCCCC2)N(C)C(=O)CN(C)C(=O)CN(C)C1=O` [US20240148821, Compound 2126] ([NMeL]I[Sar][Sar][NMeCha][Sar][hPhe(3-F,4-CF3)][cisHyp](X106)[Ac5c][NMeL][NMeD]-Piperidide; lactam N-11) and `CC[C@H](C)[C@@H]1NC(=O)[C@H](CC(C)C)N(C)C(=O)C[C@@H](C(=O)N2CCCCC2)N(C)C(=O)[C@H](CC(C)C)N(C)C(=O)C2(CCCC2)NC(=O)[C@@H]2C[C@H](OCc3ccc(Cl)cc3)CN2C(=O)[C@H](CCc2ccc(C(F)(F)F)c(F)c2)NC(=O)CN(C)C(=O)[C@H](CC2CCCCC2)N(C)C(=O)CN(C)C(=O)CN(C)C1=O` [US20240148821, Compound 2129] ([NMeL]I[Sar][Sar][NMeCha][Sar][hPhe(3-F,4-CF3)][cisHyp](Benzyl(4-Cl))[Ac5c][NMeL][NMeD]-Piperidide; lactam N-11) are within 1.5-fold of each other in IC50: 37 nM for the first, 46 nM for the second.

Compound `CC[C@H](C)[C@@H]1NC(=O)[C@H](CC(C)C)N(C)C(=O)C[C@@H](C(=O)N2CCCCC2)N(C)C(=O)[C@H](CC(C)C)N(C)C(=O)C2(CCCC2)NC(=O)[C@@H]2C[C@@H](OCc3ccc(OC(F)F)cc3)CN2C(=O)[C@H](CCc2ccc(C(F)(F)F)c(F)c2)NC(=O)CN(C)C(=O)[C@H](CC2CCCCC2)N(C)C(=O)CN(C)C(=O)CN(C)C1=O` [US20240148821, Compound 2128] ([NMeL]I[Sar][Sar][NMeCha][Sar][hPhe(3-F,4-CF3)][Hyp](X57)[Ac5c][NMeL][NMeD]-Piperidide; lactam N-11) has an IC50 of 15 nM.
